Legend:
Plasmodium falciparum [1] = test: Antimalarial activity against Plasmodium falciparum K1 assessed as inhibition of [3H]hypoxanthine incorporation preincubated for 48 hrs measured 24 hrs post [3H]hypoxanthine addition by liquid scintillation counting; assay type: functional, organism-based
Plasmodium falciparum [2] = test: Antimalarial activity against Plasmodium falciparum […] assessed as inhibition of [3H]hypoxanthine incorporation preincubated for 48 hrs measured 24 hrs post [3H]hypoxanthine addition by liquid scintillation counting; assay type: functional, organism-based

| Compound | IC50 (Plasmodium falciparum [1]) [nM] | IC50 (Plasmodium falciparum [2]) [nM] |
| --- | --- | --- |
| CCN(CC)c1ccc2nc3c4ccccc4/c(=N\c4ccncc4)cc-3oc2c1 | 6.5 | 11 |
| CCNc1ccc2nc3c4ccccc4/c(=N/c4ccncc4)cc-3oc2c1 | 5 | 7.5 |
| Nc1ccc2nc3c4ccccc4/c(=N/c4ccncc4)cc-3oc2c1 | 17.1 | 24 |
| CN(C)c1ccc2nc3ccc(=[N+](C)C)cc-3sc2c1 [METHYLENE BLUE CATION] | 5.2 | 4.2 |

Source: ChEMBL document CHEMBL3297698, “Novel synthetic route for antimalarial benzo[a]phenoxazine derivative SSJ-183 and two active metabolites” (Bioorg Med Chem, 2014)
